Source: ChEMBL document CHEMBL1150976, “The selectivity of protein kinase inhibitors: a further update” (Biochem J, 2007)

Tests used:
[1] = target: T1, Mitogen-activated protein kinase 13 (Homo sapiens) (UniProt O15264); test: Percentage p38delta activity remaining in the presence of 2uM inhibitor
T1 sequence (whole entry): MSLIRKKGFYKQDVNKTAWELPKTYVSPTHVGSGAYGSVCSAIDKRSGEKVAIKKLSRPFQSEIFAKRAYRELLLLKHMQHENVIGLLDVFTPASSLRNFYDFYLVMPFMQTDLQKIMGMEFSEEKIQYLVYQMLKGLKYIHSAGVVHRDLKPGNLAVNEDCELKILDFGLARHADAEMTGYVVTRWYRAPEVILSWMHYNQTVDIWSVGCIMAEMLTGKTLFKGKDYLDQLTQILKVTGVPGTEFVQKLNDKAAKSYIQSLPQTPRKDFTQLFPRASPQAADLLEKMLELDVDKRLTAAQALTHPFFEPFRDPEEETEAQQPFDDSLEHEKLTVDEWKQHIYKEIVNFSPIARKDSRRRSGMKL

[2] = target: T2, Mitogen-activated protein kinase 15 (Homo sapiens) (UniProt Q8TD08); test: Percentage ERK8 activity remaining in the presence of 2uM inhibitor; details: filed as antagonist
T2 sequence (whole entry): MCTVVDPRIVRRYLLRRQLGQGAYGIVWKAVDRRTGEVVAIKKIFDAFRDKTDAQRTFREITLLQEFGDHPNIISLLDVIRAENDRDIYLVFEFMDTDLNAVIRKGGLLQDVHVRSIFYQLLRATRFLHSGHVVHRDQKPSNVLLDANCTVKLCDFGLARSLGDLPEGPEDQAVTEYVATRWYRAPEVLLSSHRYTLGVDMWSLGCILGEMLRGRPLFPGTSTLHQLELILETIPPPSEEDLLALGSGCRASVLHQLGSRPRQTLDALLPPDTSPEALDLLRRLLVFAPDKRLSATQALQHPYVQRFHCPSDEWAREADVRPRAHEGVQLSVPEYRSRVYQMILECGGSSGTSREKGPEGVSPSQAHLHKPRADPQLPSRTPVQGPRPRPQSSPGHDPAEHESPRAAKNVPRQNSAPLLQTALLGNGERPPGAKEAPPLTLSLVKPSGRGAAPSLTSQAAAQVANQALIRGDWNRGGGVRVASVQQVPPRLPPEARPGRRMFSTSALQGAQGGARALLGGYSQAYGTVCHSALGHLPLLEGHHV

[3] = target: T3, Serine/threonine-protein kinase 3 (Homo sapiens) (UniProt Q13188); test: Percentage MST2 activity remaining in the presence of 2uM inhibitor; details: filed as antagonist
T3 sequence (whole entry): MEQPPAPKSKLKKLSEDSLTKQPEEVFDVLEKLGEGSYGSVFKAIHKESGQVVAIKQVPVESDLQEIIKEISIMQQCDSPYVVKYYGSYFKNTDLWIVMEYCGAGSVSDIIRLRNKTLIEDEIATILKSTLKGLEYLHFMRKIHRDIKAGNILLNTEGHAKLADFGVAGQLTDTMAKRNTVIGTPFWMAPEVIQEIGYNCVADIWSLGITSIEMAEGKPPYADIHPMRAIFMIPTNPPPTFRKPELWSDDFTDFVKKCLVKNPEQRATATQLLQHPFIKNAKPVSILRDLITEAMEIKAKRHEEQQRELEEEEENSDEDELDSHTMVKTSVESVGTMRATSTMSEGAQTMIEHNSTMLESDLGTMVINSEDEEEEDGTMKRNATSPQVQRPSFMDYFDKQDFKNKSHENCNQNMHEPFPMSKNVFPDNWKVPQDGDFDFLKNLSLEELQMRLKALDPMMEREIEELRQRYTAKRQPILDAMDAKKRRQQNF

[4] = target: T4, Serine/threonine-protein kinase Nek2 (Homo sapiens) (UniProt P51955); test: Percentage NEK2a activity remaining in the presence of 2uM inhibitor
T4 sequence (whole entry): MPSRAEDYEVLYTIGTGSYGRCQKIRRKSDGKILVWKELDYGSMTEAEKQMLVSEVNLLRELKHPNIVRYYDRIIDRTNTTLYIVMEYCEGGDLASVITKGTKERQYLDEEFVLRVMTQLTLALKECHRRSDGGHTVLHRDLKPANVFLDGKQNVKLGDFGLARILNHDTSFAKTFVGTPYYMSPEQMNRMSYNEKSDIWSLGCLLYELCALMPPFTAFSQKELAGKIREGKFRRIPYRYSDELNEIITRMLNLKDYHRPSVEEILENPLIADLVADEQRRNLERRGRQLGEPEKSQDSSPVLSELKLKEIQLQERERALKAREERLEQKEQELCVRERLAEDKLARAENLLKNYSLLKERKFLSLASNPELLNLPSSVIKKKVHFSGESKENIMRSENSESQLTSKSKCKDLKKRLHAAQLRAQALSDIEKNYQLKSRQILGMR

[5] = target: RAC-beta serine/threonine-protein kinase (Homo sapiens) (UniProt P31751); test: Percentage PKBbeta activity remaining in the presence of 3uM inhibitor
[6] = target: Serine/threonine-protein kinase pim-1 (Homo sapiens, UniProt P11309); test: Percentage PIM1 activity remaining in the presence of 3uM inhibitor
[7] = target: T5, Protein kinase C zeta type (Homo sapiens) (UniProt Q05513); test: Percentage PKCzeta activity remaining in the presence of 3uM inhibitor
T5 sequence (whole entry): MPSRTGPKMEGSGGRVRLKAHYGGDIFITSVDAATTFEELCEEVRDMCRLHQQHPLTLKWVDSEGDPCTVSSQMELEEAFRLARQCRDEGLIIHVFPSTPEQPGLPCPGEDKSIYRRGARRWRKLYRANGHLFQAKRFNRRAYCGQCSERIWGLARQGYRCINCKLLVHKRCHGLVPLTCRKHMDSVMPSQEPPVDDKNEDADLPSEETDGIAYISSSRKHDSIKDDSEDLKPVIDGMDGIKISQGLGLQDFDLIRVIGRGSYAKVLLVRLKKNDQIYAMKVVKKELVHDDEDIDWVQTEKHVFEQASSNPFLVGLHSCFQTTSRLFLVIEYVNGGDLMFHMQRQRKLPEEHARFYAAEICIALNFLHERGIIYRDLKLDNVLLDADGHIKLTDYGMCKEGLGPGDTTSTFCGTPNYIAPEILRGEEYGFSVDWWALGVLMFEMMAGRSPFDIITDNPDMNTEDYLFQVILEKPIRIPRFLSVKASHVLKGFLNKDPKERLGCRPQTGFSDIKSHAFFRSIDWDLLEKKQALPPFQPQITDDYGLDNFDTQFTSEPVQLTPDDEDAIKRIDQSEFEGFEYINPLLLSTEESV

[8] = target: Serine/threonine-protein kinase PAK 5 (Homo sapiens) (UniProt Q9P286); test: Percentage PAK5 activity remaining in the presence of 3uM inhibitor
[9] = target: Myosin light chain kinase, smooth muscle (Homo sapiens, UniProt Q15746); test: Percentage SmMLCK activity remaining in the presence of 3uM inhibitor
[10] = target: MAP kinase-interacting serine/threonine-protein kinase 2 (Homo sapiens) (UniProt Q9HBH9); test: Percentage MNK2 activity remaining in the presence of 3uM inhibitor
Chain of MAP kinase-interacting serine/threonine-protein kinase 2 (Homo sapiens) (Q9HBH9 whole entry, looked up): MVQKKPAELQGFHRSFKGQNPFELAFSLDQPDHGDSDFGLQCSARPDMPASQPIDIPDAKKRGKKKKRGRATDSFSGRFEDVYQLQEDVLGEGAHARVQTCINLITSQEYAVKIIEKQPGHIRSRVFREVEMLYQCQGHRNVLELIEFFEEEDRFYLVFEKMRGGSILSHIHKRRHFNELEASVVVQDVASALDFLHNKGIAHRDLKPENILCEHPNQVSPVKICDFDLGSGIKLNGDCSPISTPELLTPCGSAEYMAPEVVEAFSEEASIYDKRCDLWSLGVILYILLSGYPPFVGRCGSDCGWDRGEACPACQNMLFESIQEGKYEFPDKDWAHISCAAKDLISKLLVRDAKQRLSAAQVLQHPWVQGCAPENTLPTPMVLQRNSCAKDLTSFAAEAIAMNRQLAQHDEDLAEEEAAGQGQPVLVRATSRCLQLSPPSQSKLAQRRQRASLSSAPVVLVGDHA

Chain of Serine/threonine-protein kinase pim-1 (P11309 whole entry, looked up): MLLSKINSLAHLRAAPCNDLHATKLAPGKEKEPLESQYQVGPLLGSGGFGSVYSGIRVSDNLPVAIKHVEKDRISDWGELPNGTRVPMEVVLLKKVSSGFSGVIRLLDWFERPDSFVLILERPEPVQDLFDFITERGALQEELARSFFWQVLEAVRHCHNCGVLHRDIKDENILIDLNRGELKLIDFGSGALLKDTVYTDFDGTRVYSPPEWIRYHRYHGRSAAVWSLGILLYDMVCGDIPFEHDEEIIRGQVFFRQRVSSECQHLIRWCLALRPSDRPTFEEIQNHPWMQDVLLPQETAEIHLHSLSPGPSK
Chain of Myosin light chain kinase, smooth muscle (Q15746 whole entry): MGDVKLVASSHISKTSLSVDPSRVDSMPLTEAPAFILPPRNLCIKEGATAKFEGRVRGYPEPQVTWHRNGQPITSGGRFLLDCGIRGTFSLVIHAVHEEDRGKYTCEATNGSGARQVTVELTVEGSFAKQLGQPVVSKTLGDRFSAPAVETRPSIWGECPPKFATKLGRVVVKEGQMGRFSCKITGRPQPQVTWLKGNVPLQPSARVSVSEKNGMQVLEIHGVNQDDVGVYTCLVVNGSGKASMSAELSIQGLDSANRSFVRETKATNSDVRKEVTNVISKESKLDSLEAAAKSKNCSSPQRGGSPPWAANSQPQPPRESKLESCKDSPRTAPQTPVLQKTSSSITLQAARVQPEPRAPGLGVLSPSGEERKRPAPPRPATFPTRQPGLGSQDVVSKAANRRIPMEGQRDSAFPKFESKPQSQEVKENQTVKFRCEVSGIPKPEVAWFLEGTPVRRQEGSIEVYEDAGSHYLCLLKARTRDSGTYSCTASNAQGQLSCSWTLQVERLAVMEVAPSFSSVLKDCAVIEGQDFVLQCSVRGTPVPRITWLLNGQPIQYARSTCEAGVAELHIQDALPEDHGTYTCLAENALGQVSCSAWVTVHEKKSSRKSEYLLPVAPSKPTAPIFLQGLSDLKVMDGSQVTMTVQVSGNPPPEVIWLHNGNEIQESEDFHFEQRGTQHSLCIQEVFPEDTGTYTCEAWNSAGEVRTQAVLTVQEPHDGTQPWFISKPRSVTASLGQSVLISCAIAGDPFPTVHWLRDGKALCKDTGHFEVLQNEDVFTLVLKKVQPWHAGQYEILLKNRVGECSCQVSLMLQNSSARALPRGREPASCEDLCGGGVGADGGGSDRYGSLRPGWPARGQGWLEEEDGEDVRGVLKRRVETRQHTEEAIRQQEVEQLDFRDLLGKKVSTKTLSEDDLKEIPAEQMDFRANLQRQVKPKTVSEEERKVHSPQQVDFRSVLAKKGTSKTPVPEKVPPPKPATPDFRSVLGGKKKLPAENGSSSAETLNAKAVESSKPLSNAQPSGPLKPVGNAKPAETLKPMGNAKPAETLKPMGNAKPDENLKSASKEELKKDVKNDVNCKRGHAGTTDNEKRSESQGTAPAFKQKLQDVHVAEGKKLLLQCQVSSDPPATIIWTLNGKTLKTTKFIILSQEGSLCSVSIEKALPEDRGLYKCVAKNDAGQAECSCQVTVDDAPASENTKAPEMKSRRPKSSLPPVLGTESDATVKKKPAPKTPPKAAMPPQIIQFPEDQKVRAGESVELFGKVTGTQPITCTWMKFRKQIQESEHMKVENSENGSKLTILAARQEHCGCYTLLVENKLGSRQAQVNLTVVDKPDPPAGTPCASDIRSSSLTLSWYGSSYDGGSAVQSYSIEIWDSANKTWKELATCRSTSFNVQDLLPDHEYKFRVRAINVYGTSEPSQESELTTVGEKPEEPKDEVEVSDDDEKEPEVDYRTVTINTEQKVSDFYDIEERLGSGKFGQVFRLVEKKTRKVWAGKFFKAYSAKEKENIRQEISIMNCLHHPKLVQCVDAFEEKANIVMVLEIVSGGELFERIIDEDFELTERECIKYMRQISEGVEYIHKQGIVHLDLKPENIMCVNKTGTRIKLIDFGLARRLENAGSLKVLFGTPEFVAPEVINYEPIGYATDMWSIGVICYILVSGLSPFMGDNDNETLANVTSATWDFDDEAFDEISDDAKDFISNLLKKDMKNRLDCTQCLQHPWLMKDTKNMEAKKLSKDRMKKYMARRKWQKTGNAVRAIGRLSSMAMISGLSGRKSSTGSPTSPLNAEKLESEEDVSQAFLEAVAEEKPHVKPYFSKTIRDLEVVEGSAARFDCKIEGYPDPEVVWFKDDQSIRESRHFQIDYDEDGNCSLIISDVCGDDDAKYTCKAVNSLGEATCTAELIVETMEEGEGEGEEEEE
Chain of Serine/threonine-protein kinase PAK 5 (Homo sapiens) (Q9P286 whole entry, looked up): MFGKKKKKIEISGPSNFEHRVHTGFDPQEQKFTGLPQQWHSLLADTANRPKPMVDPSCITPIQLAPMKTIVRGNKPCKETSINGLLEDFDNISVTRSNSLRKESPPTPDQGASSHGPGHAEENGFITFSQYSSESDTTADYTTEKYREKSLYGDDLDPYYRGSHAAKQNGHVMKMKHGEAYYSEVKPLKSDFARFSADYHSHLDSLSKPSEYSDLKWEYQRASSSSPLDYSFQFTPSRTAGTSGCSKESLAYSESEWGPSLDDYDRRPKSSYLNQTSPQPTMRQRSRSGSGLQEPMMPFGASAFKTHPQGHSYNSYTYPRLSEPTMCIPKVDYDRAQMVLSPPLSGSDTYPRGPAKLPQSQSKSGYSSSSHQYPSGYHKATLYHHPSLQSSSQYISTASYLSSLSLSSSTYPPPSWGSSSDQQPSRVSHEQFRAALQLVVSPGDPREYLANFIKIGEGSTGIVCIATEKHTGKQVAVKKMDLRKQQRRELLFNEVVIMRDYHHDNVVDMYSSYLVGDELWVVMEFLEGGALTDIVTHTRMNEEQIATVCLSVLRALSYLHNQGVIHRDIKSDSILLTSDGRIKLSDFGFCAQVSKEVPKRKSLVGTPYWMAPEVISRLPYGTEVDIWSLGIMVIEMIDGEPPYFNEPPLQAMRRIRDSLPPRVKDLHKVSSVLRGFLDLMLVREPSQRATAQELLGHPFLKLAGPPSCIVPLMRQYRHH
Chain of RAC-beta serine/threonine-protein kinase (Homo sapiens) (P31751 whole entry): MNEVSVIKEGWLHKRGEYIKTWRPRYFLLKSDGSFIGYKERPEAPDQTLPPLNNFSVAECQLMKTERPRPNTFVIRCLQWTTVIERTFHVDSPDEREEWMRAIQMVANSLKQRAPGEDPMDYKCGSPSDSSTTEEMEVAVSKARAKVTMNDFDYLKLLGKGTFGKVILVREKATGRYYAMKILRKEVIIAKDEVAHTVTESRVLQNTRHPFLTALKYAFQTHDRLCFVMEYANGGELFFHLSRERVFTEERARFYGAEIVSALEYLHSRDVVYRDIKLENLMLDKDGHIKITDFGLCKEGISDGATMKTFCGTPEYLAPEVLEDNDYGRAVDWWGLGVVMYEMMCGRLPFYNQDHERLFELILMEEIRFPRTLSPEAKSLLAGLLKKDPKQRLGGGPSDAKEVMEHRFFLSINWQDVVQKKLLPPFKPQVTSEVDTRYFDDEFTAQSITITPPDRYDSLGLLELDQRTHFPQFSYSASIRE

Row | Activity [1] [%] | Activity [3] [%] | Activity [4] [%] | Activity [5] [%] | Activity [6] [%] | Activity [7] [%] | Activity [8] [%] | Activity [9] [%] | Activity [10] [%] | SMILES | Activity [2] [%]
1 | 81 | 50 | 74 |  |  |  |  |  |  | Cn1cc(C2=C(c3ccc(Cl)cc3Cl)C(=O)NC2=O)c2ccccc21 | 12
2 |  |  |  | 97 | 61 | 91 | 88 | 82 | 65 | Cc1ccc(-c2c(C(=O)CF)n(CCCO)c3ncnc(N)c23)cc1 | 
